Converted amounts (≈) assume the structure as drawn. “And” between values parts separate entries of the source, which are not always exact repeats. Identical values can stand only once. Like-named read-outs stand apart in the source and are kept apart here.
Legend:
paLpxC = paLpxC (Pseudomonas aeruginosa (strain ATCC 15692 / DSM 22644 / CIP 104116 / JCM 14847 / LMG 12228 / 1C / PRS 101 / PAO1), UniProt P47205); experiment: biochemical; type: binding; conditions: for tR (min) Fluorescence assay: tR = 1/koff; for kon: read-out: Kon (μM^−1s^−1); for residence time fold longer than 1: fluorescence assay
P. aeruginosa PAO1 [1] = experiment: MIC by microbroth dilution, P. aeruginosa PAO1; conditions: for MIC: Pseudomonas aeruginosa, PAO1, read-out: MIC (μM) (PAO1)
[2] = system: efflux-pump mutant strain (ΔMexABCDXY) (paEP); experiment: MIC by microbroth dilution, efflux-pump mutant P. aeruginosa; conditions: for MIC: Pseudomonas aeruginosa, read-out: MIC (μM) (paEP)
From the text: Bacterial Strains. […] The efflux-pump deficient P. aeruginosa strain (ΔMexABCDXY), N150, was derived from PAO1.
Minimum Inhibitory Concentration (MIC) Measurements.

P. aeruginosa PAO1 [3] = experiment: Post-antibiotic effect (PAE) in P. aeruginosa PAO1; conditions: PAO1, 4xMIC for 1 h, 37° C.
Method: Post-antibiotic effect of the paLpxC inhibitors on wild-type P. aeruginosa. […] The experimental data points are the mean values from triplicate, independent measurements, and the error bars represent the standard deviation from the mean.
After incubating the plates overnight at 37° C., CFUs were enumerated, and the PAE values were calculated using a standard method where the time for the bacteria to recover 1 log post drug washout compared to the control was determined (FIG. 17, Table 6).
Post-antibiotic Effect (PAE). PAEs were determined using P. aeruginosa PAO1. […] The compound was washed out by diluting the culture 1000-fold into fresh CAMH-II medium, and the regrowth of bacteria was monitored by taking 100 μL aliquots each hour and plating serial dilutions on Muller-Hinton agar plates.

[4] = 37° C., fluorescence competition

paLpxC, sequence (P47205 1-299): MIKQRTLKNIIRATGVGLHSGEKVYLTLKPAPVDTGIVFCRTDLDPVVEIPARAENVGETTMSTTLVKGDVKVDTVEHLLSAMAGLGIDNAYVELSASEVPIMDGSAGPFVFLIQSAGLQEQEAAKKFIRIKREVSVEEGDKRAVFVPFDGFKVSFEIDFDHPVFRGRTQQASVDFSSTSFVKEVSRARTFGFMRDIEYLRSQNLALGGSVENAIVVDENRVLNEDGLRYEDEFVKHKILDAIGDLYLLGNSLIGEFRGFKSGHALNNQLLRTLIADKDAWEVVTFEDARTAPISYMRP

Row | Structure (SMILES) | Ki (paLpxC; [4]) | tR (min) Fluorescence assay (paLpxC; 37° C.) | koff (paLpxC; read-out: Koff (s^−1)) | kon (paLpxC) | MIC (P. aeruginosa PAO1 [1]) | MIC [2] | PAE (h) 4x (P. aeruginosa PAO1 [3]) | residence time fold longer than 1 (paLpxC; 37° C.) | MIC (μM) (paEP) ([2]; efflux-pump mutant ΔMexABCDXY) | Kon (paLpxC; [4]) | koff (paLpxC; [4]) | MIC (μM) (PAO1) (P. aeruginosa PAO1 [1]; wild-type P. aeruginosa PAO1) | MIC fold lower than that for PT810 (P. aeruginosa PAO1 [1]) | binding to paLpxC (Kon, Koff, tR, Ki) (paLpxC; [4])
1 | CC(CCn1ccc(-c2ccc(CN3CCOCC3)cc2)cc1=O)(C(=O)NO)S(C)(=O)=O (racemic) [PT904, N-hydroxy-2-methyl-2-(methylsulfonyl)-4-(4-(4-(morpholinomethyl)phenyl)-2-oxopyridin-1(2H)-yl)butanamide] | 96.8 ± 3 pM | 4.7 ± 0.2 min | 0.0035 ± 0.0001 s⁻¹ | 36.4 ± 0.4 µM⁻¹ s⁻¹ | 50 µM (≈ 23.2 µg/mL) | – | – | – | – | – | – | – | – | –
2 | CC(CCn1ccc(-c2ccc(-c3cn(CCO)nn3)cc2)cc1=O)(C(=O)NO)S(C)(=O)=O (racemic) [PT912, N-hydroxy-4-(4-(4-(1-(2-hydroxyethyl)-1H-1,2,3-triazol-4-yl)phenyl)-2-oxopyridin-1(2H)-yl)-2-methyl-2-(methylsulfonyl)butanamide] | 3.7 ± 2.3 pM | 92.3 ± 11.2 min | 0.00018 ± 2e-05 s⁻¹ | 59.6 ± 22.9 µM⁻¹ s⁻¹ | > 50 µM | > 12.5 µM | – | – | – | – | – | – | – | –
3 | CC(CCn1ccc(-c2ccc(-c3cnnn3Cc3ccccc3)cc2)cc1=O)(C(N)=O)S(C)(=O)=O (centres unmarked) [PT925, 4-(4-(4-(1-benzyl-1H-1,2,3-triazol-5-yl)phenyl)-2-oxopyridin-1(2H)-yl)-2-methyl-2-(methylsulfonyl)butanamide] | – | 9 min and 9.0 ± 0.9 min | – | – | 50 µM (≈ 25.3 µg/mL) | 12.5 µM (≈ 6.32 µg/mL) | – | – | – | – | – | – | – | –
4 | CC1(Cn2cc(-c3ccc(-c4ccn(CCC(C)(C(=O)NO)S(C)(=O)=O)c(=O)c4)cc3)nn2)COC1 (racemic) [PT911, N-hydroxy-2-methyl-4-(4-(4-(1-((3-methyloxetan-3-yl)methyl)-1H-1,2,3-triazol-4-yl)phenyl)-2-oxopyridin-1(2H)-yl)-2-(methylsulfonyl)butanamide] | – | – | – | – | 25 µM (≈ 12.9 µg/mL) | 1.56 µM (≈ 0.804 µg/mL) | – | – | – | – | – | – | – | –
5 | COc1ccc(-c2ccn(CCC(C)(C(=O)NO)S(C)(=O)=O)c(=O)c2)cc1 (racemic) [PT902, N-hydroxy-4-(4-(4-methoxyphenyl)-2-oxopyridin-1(2H)-yl)-2-methyl-2-(methylsulfonyl)butanamide] | – | – | – | – | 3.12 µM (≈ 1.23 µg/mL) | 0.8 µM (≈ 0.316 µg/mL) | – | – | – | – | – | – | – | –
6 | CC(CCn1ccc(-c2ccc(-c3cn(CC45CC(C4)C5)nn3)cc2)cc1=O)(C(=O)NO)S(C)(=O)=O (racemic) [PT913, 4-(4-(4-(1-(bicyclo[1.1.1]pentan-1-ylmethyl)-1H-1,2,3-triazol-4-yl)phenyl)-2-oxopyridin-1(2H)-yl)-N-hydroxy-2-methyl-2-(methylsulfonyl)butanamide] | 2.1 ± 1.6 pM | 123.8 ± 37.2 min and 124.0 ± 37.2 min | 0.00015 ± 5e-05 s⁻¹ | 85.2 ± 32.5 µM⁻¹ s⁻¹ | 12.5 µM (≈ 6.4 µg/mL) | 0.78 µM (≈ 0.399 µg/mL) | 4 h and 4.0 ± 0.2 h | ~3 fold | – | – | – | – | – | –
7 | COc1ccc(-c2ccc(CNC3(C(=O)NO)CCS(=O)(=O)CC3)cc2F)cc1 [PT921, 4-(((2-fluoro-4′-methoxy-[1,1′-biphenyl]-4-yl)methyl)amino)-N-hydroxytetrahydro-2H-thiopyran-4-carboxamide 1,1-dioxide] | 14.4 ± 2.5 pM | 34.3 ± 1.0 min | 0.00049 ± 1e-05 s⁻¹ | 34.5 ± 6.3 µM⁻¹ s⁻¹ | 0.8 µM (≈ 0.338 µg/mL) | 0.1 µM (≈ 0.0422 µg/mL) | – | – | – | – | – | – | – | –
8 | CC(CCn1ccc(-c2ccc(N)cc2)cc1=O)(C(=O)NO)S(C)(=O)=O (centres unmarked) [PT919] | 4 ± 3 pM | 121.15 ± 30 min | – | – | – | – | – | – | 0.78 µM (≈ 0.296 µg/mL) | 6.427e+07 ± 5.976e+07 M⁻¹ s⁻¹ | 0.000143 ± 0.00003 s⁻¹ | 12.5 µM (≈ 4.74 µg/mL) | – | –
9 | CC(CCn1ccc(-c2ccc(-c3cn(Cc4ccncn4)nn3)cc2)cc1=O)(C(=O)NO)S(C)(=O)=O (racemic) [PT916, N-hydroxy-2-methyl-2-(methylsulfonyl)-4-(2-oxo-4-(4-(1-(pyrimidin-4-ylmethyl)-1H-1,2,3-triazol-4-yl)phenyl)pyridin-1(2H)-yl)butanamide] | 4.2 ± 2.2 pM | 102.7 ± 20.2 min | 0.00017 ± 3e-05 s⁻¹ | 44.3 ± 14.5 µM⁻¹ s⁻¹ | 50 µM (≈ 26.2 µg/mL) | 3.12 µM (≈ 1.64 µg/mL) | – | – | – | – | – | – | – | –
10 | CC(CCn1ccc(-c2ccc(NC(=O)Cc3ccccc3)cc2)cc1=O)(C(=O)NO)S(C)(=O)=O (racemic) [PT924, N-hydroxy-2-methyl-2-(methylsulfonyl)-4-(2-oxo-4-(4-(2-phenylacetamido)phenyl)pyridin-1(2H)-yl)butanamide] | 95.4 ± 16.2 pM | 4.0 ± 1.0 min | 0.0043 ± 0.0009 s⁻¹ | 44.8 ± 5.4 µM⁻¹ s⁻¹ | 50 µM (≈ 24.9 µg/mL) | 3.12 µM (≈ 1.55 µg/mL) | – | – | – | – | – | – | – | –
11 | CC(CCn1ccc(-c2ccc(C(=O)NCc3ccccc3)cc2)cc1=O)(C(=O)NO)S(C)(=O)=O (racemic) [PT923, N-benzyl-4-(1-(4-(hydroxyamino)-3-methyl-3-(methylsulfonyl)-4-oxobutyl)-2-oxo-1,2-dihydropyridin-4-yl)benzamide] | 274 ± 76.6 pM | 8.0 ± 1.2 min | 0.0021 ± 0.0003 s⁻¹ | 23.8 ± 18.8 µM⁻¹ s⁻¹ | 25 µM (≈ 12.4 µg/mL) | 3.12 µM (≈ 1.55 µg/mL) | – | – | – | – | – | – | – | –
12 | CC(CCn1ccc(-c2ccc(-c3cn(Cc4ccc([N+](=O)[O-])cc4)nn3)cc2)cc1=O)(C(=O)NO)S(C)(=O)=O (racemic) [PT918, N-hydroxy-2-methyl-2-(methylsulfonyl)-4-(4-(4-(1-(4-nitrobenzyl)-1H-1,2,3-triazol-4-yl)phenyl)-2-oxopyridin-1(2H)-yl)butanamide] | 7 ± 1 pM | 78.5 ± 8.4 min | 0.00021 ± 2e-05 s⁻¹ | 30.7 ± 0.1 µM⁻¹ s⁻¹ | 6.25 µM (≈ 3.54 µg/mL) | 0.1 µM (≈ 0.0567 µg/mL) | – | – | – | – | – | – | – | –
13 | CC(CCn1ccc(-c2ccc(-c3cn(Cc4ccccn4)nn3)cc2)cc1=O)(C(=O)NO)S(C)(=O)=O (racemic) [PT914, N-hydroxy-2-methyl-2-(methylsulfonyl)-4-(2-oxo-4-(4-(1-(pyridin-2-ylmethyl)-1H-1,2,3-triazol-4-yl)phenyl)pyridin-1(2H)-yl)butanamide] | 5.5 ± 3.4 pM | 118.5 ± 44.0 min | 0.00016 ± 6e-05 s⁻¹ | 37.2 ± 23 µM⁻¹ s⁻¹ | 6.25 µM (≈ 3.27 µg/mL) | 0.2 µM (≈ 0.105 µg/mL) | – | ~3 fold | – | – | – | – | 2 fold | –
14 | CC(CCn1ccc(-c2ccc(-c3cn(CC4CCCCC4)nn3)cc2)cc1=O)(C(=O)NO)S(C)(=O)=O (racemic) [PT910, 4-(4-(4-(1-(cyclohexylmethyl)-1H-1,2,3-triazol-4-yl)phenyl)-2-oxopyridin-1(2H)-yl)-N-hydroxy-2-methyl-2-(methylsulfonyl)butanamide] | 5.5 ± 3.4 pM | 100.2 ± 18.5 min | 0.00017 ± 3e-05 s⁻¹ | 31 ± 3 µM⁻¹ s⁻¹ | 50 µM (≈ 26.4 µg/mL) | 3.12 µM (≈ 1.65 µg/mL) | – | – | – | – | – | – | – | –
15 | C[C@@H](O)C(NC(=O)c1ccc(-c2cn(Cc3ccccc3)nn2)cc1)C(=O)NO (stereo partly drawn) [PT903, 4-(1-benzyl-1H-1,2,3-triazol-4-yl)-N-((3R)-3-hydroxy-1-(hydroxyamino)-1-oxobutan-2-yl)benzamide] | – | – | – | – | > 50 µM | > 12.5 µM | – | – | – | – | – | – | – | No binding was observed
16 | CC(CCn1ccc(-c2ccc(-c3cn(Cc4ccncc4)nn3)cc2)cc1=O)(C(=O)NO)S(C)(=O)=O (racemic) [PT915, N-hydroxy-2-methyl-2-(methylsulfonyl)-4-(2-oxo-4-(4-(1-(pyridin-4-ylmethyl)-1H-1,2,3-triazol-4-yl)phenyl)pyridin-1(2H)-yl)butanamide] | – | – | – | – | 50 µM (≈ 26.1 µg/mL) | 6.25 µM (≈ 3.27 µg/mL) | – | – | – | – | – | – | – | –
17 | CC(CCn1ccc(-c2ccc(-c3cn(Cc4cccnc4)nn3)cc2)cc1=O)(C(=O)NO)S(C)(=O)=O (racemic) [PT917, N-hydroxy-2-methyl-2-(methylsulfonyl)-4-(2-oxo-4-(4-(1-(pyridin-3-ylmethyl)-1H-1,2,3-triazol-4-yl)phenyl)pyridin-1(2H)-yl)butanamide] | 3.2 ± 0.2 pM | 121.3 ± 4.4 min | 0.00014 ± 1e-05 s⁻¹ | 42.8 ± 1.3 µM⁻¹ s⁻¹ | – | – | – | ~3 fold | – | – | – | – | – | –
